Reference: patent US11679159B2, “Compositions for transfecting resistant cell types” (Precision Nanosystems ULC, priority 2018, dated 2023)

System: NPC
Test: GFP levels in NPC measured by flow cytometry, KC2 and DLin-MC3-DMA substituted as ionizable lipid
Type: cell-based, human
Conditions: 48 H, ionizable lipid in the Lipid Mix K, over the control Lipid Mix A (FIG. 11)
From the text: Two commonly used ionizable lipids, KC2 and DLin-MC3-DMA, were substituted for the ionizable lipid component for Lipid Mixes A and K. NPC were transfected as specified above, and the results at 48 H for GFP Median Fluorescent Intensity via flow cytometry are shown in FIG. 11. Both KC2 and DLin-MC3-DMA (MC3 in the graph) were effective in the Lipid Mix K to enhance GFP expression over the control Lipid Mix A. PNI-IL-1 is 1,17-bis(2-octylcyclopropyl)heptadecan-9-yl 4-(dimethylamino)butanoate HCl).

Structure (SMILES)	GFP Median Fluorescent Intensity via flow cytometry
CCCCCC=CCC=CCCCCCCCCC(CCCCCCCCC=CCC=CCCCCC)OC(=O)CCCN(C)C (centres unmarked) [DLin-MC3-DMA, heptatriaconta-6,9,28,31-tetraen-19-yl 4-(dimethylamino)butanoate]	effective
CCCCC/C=C\C/C=C\CCCCCCCCC1(CCCCCCCC/C=C\C/C=C\CCCCC)OCC(CCN(C)C)O1 (centres unmarked) [KC2, 2,2-dilinoleyl-4-(2-dimethylaminoethyl)-[1,3]-dioxolane]	effective
